Where two headings read alike, the source gives them in different places. Marks after values point to notes of the source that are not given here.
Key:
[1] = test system: Fusarium graminearum; format: cell-based; conditions: 50 μM; for % Inhibition of DON/AcDON at 50 μM: 7 days at 28° C.

## CSc1ccc(-c2nn(C(C)C)cc2-c2ccncc2)s1 [Example 294]
[1]
  % Inhibition of fungal growth at 50 μM: 92%
  % Inhibition of DON/AcDON at 50 μM: 99%
pH 2.7
  log p: 1.79^[b]

## Fc1ccc(-c2n[nH]cc2-c2ccncc2)s1 [Example 105]
[1]
  % Inhibition of fungal growth at 50 μM: 0%
  % Inhibition of DON/AcDON at 50 μM: 88%
pH 2.7
  log p: 0.57^[b]

## Clc1ccc(Cn2cc(-c3ccncc3)c(-c3ccc(Br)s3)n2)s1 [Example 351]
[1]
  % Inhibition of fungal growth at 50 μM: 36%
  % Inhibition of DON/AcDON at 50 μM: 99%
pH 2.7
  log p: 2.69^[b]

## N#CCCn1cc(-c2ccncc2)c(-c2cc3ccsc3s2)n1 [Example 338]
[1]
  % Inhibition of fungal growth at 50 μM: 50%
  % Inhibition of DON/AcDON at 50 μM: 99%
pH 2.7
  log p: 1.07^[b]

## ClCCn1cc(-c2ccncc2)c(-c2ccc(Br)s2)n1 [Example 393]
[1]
  % Inhibition of fungal growth at 50 μM: 96%
  % Inhibition of DON/AcDON at 50 μM: 99%
pH 2.7
  log p: 1.78^[b]
  logP value of the minor isomer: (1.61)

## CC(C)n1cc(-c2ccncc2)c(-c2ccc(I)s2)n1 [Example 214]
[1]
  % Inhibition of fungal growth at 50 μM: 89%
  % Inhibition of DON/AcDON at 50 μM: 99%
pH 2.7
  log p: 1.89^[b]

## C=CCNc1nccc(-c2cn(C(C)CC)nc2-c2ccc(Cl)s2)n1 (stereo not drawn) [Example 196]
[1]
  % Inhibition of fungal growth at 50 μM: 83%
  % Inhibition of DON/AcDON at 50 μM: 99%
pH 2.3
  log p: 3.39^[a]

## Cn1cc(-c2ccnc(Cl)c2)c(-c2ccc(Cl)s2)n1 [Example 313]
[1]
  % Inhibition of fungal growth at 50 μM: 6%
  % Inhibition of DON/AcDON at 50 μM: 98%
pH 2.7
  log p: 3.37^[b]

## CCn1cc(-c2ccnc(NC(=O)N(C)C)c2)c(-c2ccc(Cl)s2)n1 [Example 251]
[1]
  % Inhibition of fungal growth at 50 μM: 100%
  % Inhibition of DON/AcDON at 50 μM: 99%
pH 2.7
  log p: 1.72^[b]

## Brc1ccc(-c2nn(C3CCCC3)cc2-c2ccncc2)s1 [Example 356]
[1]
  % Inhibition of fungal growth at 50 μM: 75%
  % Inhibition of DON/AcDON at 50 μM: 97%
pH 2.7
  log p: 2.37^[b]

## CC1(Cn2cc(-c3ccncc3)c(-c3ccc(Cl)s3)n2)CC1(Cl)Cl (stereo not drawn) [Example 324]
[1]
  % Inhibition of fungal growth at 50 μM: 0%
  % Inhibition of DON/AcDON at 50 μM: 93%
pH 2.7
  log p: 2.71^[b]

## CC(C)n1cc(-c2ccnc(NS(=O)(=O)N(C)C)c2)c(-c2ccc(Cl)s2)n1 [Example 218]
pH 2.7
  log p: 3^[b]

## CC(C)(C)Cn1ncc(-c2ccncn2)c1-c1ccc(Cl)s1 [Example 34]
pH 2.7
  log p: 3.82^[b]

## CC(C)n1cc(-c2ccnc(Cl)n2)c(-c2ccc(Cl)s2)n1 [Example 192]
pH 2.3
  log p: 4.31^[a]

## CC(C)n1cc(-c2ccncc2)c(-c2ccc(Br)s2)n1 [4-[1-Isopropyl-(3/5)-(5-bromo-2-thienyl)-1H-pyrazol-4-yl]pyridine]
pH 2.7
  logP (pH2.7): 1.88
  logP (pH2.7), minor isomer: 1.76

## CCn1cc(-c2ccncc2)c(-c2cc(Cl)cs2)n1 [Example 156]
pH 2.7
  log p: 1.34^[b]

## Clc1cc(-c2c[nH]nc2-c2ccc(Cl)s2)ccn1 [Example 40]
pH 2.3
  log p: 2.75^[a]

## Clc1ccc(-c2nn(-c3ccccc3)cc2-c2ccncc2)s1 [Example 22]
pH 2.7
  log p: 2.63^[b]

## CCC(C)n1cc(-c2ccncc2)c(-c2sccc2Cl)n1 (stereo not drawn) [Example 132]
pH 2.7
  log p: 1.56^[b]
  logP value of the minor isomer: (1.67)

## N#CCn1cc(-c2ccncc2)c(-c2cc3ccsc3s2)n1 [Example 336]
pH 2.7
  log p: 1.48^[b]

## CC(C)Nc1nccc(-c2cn(C)nc2-c2ccc(Cl)s2)n1 [Example 139]
pH 2.7
  log p: 2.07^[b]
  logP value of the minor isomer: (1.93)

## FC(F)(F)c1ccc(-c2c(-c3ccncc3)cnn2C2CCCCO2)s1 (stereo not drawn) [4-[1-(2-tetrahydropyrannyl)-5-(5-trifluoromethyl-2-thienyl)-1H-pyrazol-4-yl]pyridine]
pH 2.7
  logP (pH2.7): 1.96

## CCC(C)n1cc(-c2ccnc(NS(=O)(=O)N(C)C)c2)c(-c2ccc(Cl)s2)n1 (stereo not drawn) [Example 217]
pH 2.7
  log p: 3.35^[b]

## Clc1ccc(Cn2cc(-c3ccncc3)c(-c3cc4ccsc4s3)n2)s1 [Example 339]
pH 2.7
  log p: 2.57^[b]
  logP value of the minor isomer (between parenthesis, Isomer ratio column): (2.35)

## CC(C)Nc1nccc(-c2cn(C3CCCC3)nc2-c2ccc(Cl)s2)n1 [Example 154]
pH 2.7
  log p: 3.61^[b]

## CC(C)Cn1cc(-c2cc[n+]([O-])c(NCc3ccccc3)c2)c(-c2ccc(Cl)s2)n1 [Example 73]
pH 2.3
  log p: 3.73^[a]

## Cn1cc(-c2ccncc2)c(-c2cc(Cl)cs2)n1 [Example 125]
pH 2.7
  log p: 1.11^[b]
  logP value of the minor isomer: (1.05)

## FC(F)Cn1cc(-c2ccnc(Cl)c2)c(-c2ccc(Cl)s2)n1 [Example 314]
pH 2.7
  log p: 3.71^[b]

## COc1nccc(-c2c[nH]nc2-c2ccc(Cl)s2)n1 [Example 69]
pH 2.3
  log p: 2.23^[a]

## N#CCn1cc(-c2ccncc2)c(-c2sccc2Cl)n1 [Example 137]
pH 2.7
  log p: 0.93^[b]
  logP value of the minor isomer: (0.78

## CC(C)n1cc(-c2ccnc(N)c2)c(-c2ccc(Cl)s2)n1 [4-[(3/5)-(5-Chloro-2-thienyl)-1-isopropyl-1H-pyrazol-4-yl]pyridin-2-amine]
pH 2.7
  logP (pH2.7): 1.78
  logP (pH2.7), minor isomer: 1.72

## 4-[5-Bromo-3-(5-chloro-2-thienyl)-1-(4-methoxybenzyl)-1H-pyrazol-4-yl]pyridine and 4-[3-bromo-5-(5-chloro-2-thienyl)-1-(4-methoxybenzyl)-1H-pyrazol-4-yl]pyridine
pH 2.7
  logP (pH2.7): 3.53
  logP (pH2.7), minor isomer: 3.0

## N#CCn1cc(-c2ccncc2)c(-c2ccc(Cl)s2)n1 [Example 53]
pH 2.7
  log p: 1.4^[b]
  logP value of the minor isomer (in parenthesis in column Isomer ratio [d]): (1.10)

## CCOCCn1cc(-c2ccncc2)c(-c2sccc2Cl)n1 [Example 135]
pH 2.7
  log p: 1.23^[b]

## CCC(C)n1cc(-c2ccnc(NC(=O)C(C)(C)C)c2)c(-c2ccc(Cl)s2)n1 (stereo not drawn) [Example 231]
pH 2.7
  log p: 4.35^[b]

## COc1ccc(Cn2nc(-c3ccc(Cl)s3)c(-c3ccncc3)c2[Si](C)(C)C)cc1 [Example 102]
pH 2.7
  log p: 4.84^[b]

## Clc1ccc(-c2c(-c3ccncc3)cnn2Cc2ccccc2)s1 [Example 42]
pH 2.3
  log p: 1.94^[a]

## CC(C)Cn1ncc(-c2cc[n+]([O-])c(NCc3ccccc3)c2)c1-c1ccc(Cl)s1 [Example 75]
pH 2.3
  log p: 3.48^[a]

## CCC(C)n1cc(-c2ccnc(SC)n2)c(-c2ccc(Cl)s2)n1 (stereo not drawn) [Example 221]
pH 2.3
  log p: 4.88^[a]

## CS(=O)(=O)n1cc(-c2ccncc2)c(-c2ccc(Cl)s2)n1 [Example 88]
pH 2.7
  log p: 1.78^[b]

## CCCCNC(=O)c1ccc(-c2[nH]ncc2-c2ccncc2)s1 [Example 37]
pH 2.7
  log p: 0.0^[b]

## CC(C)Nc1nccc(-c2cn(CC(F)F)nc2-c2ccc(Cl)s2)n1 [Example 162]
pH 2.7
  log p: 2.66^[b]

## CC(C)=CCn1cc(-c2ccncc2)c(-c2ccc(F)s2)n1 [Example 343]
pH 2.7
  log p: 1.45^[b]

## CC(C)n1cc(-c2ccnc(S(C)(=O)=O)n2)c(-c2ccc(Cl)s2)n1 [Example 203]
pH 2.3
  log p: 3.15^[a]

## CC(C)Cn1ncc(-c2ccnc(Cl)c2)c1-c1ccc(Cl)s1 [Example 72]
pH 2.3
  log p: 4.65^[a]

## CC(C)n1cc(-c2ccnc(N)n2)c(-c2ccc(Cl)s2)n1 [Example 185]
pH 2.3
  log p: 2.01^[a]

## CCC(C)Nc1nccc(-c2cn(C(C)C)nc2-c2ccc(Cl)s2)n1 (stereo not drawn) [Example 182]
pH 2.3
  log p: 3.15^[a]

## C#CCNc1cc(-c2cn(CC(C)C)nc2-c2ccc(Cl)s2)ccn1 [Example 112]
pH 2.7
  log p: 2.30^[b]

## CCC(C)n1cc(-c2ccnc(C(=O)NC(C)C)c2)c(-c2ccc(Cl)s2)n1 (stereo not drawn) [Example 99]
pH 2.7
  log p: 4.82^[b]

## Clc1ccc(-c2c(-c3ccncc3)cnn2C2CCCC2)s1 [Example 16]
pH 2.7
  log p: 2.13^[b]

## N#Cc1ccccc1Cn1cc(-c2ccncc2)c(-c2ccc(Br)s2)n1 [Example 352]
pH 2.7
  log p: 2.13^[b]

## Cc1ccc(-c2[nH]ncc2-c2ccncc2)s1 [Example 35]
pH 2.7
  log p: 0.77^[b]

## CC(C)n1cc(-c2ccnc(N=C(c3ccccc3)c3ccccc3)c2)c(-c2ccc(Cl)s2)n1 [Example 310]
pH 2.7
  log p: 4.46^[b]

## N#CCCn1cc(-c2ccncc2)c(-c2sccc2Cl)n1 [Example 143]
pH 2.7
  log p: 0.86^[b]

## CC(C)C(C)n1ncc(-c2ccncn2)c1-c1ccc(Cl)s1 (stereo not drawn) [Example 32]
pH 2.7
  log p: 3.8^[b]

## CC(C)=CCn1ncc(-c2ccncn2)c1-c1ccc(Cl)s1 [Example 29]
pH 2.7
  log p: 3.44^[b]

## CC(=O)Nc1cc(-c2cn(C)nc2-c2ccc(NC(C)=O)s2)ccn1 [Example 216]
pH 2.7
  log p: 0.76^[b]

## C#CCNc1cc(-c2cnn(CC(C)C)c2-c2ccc(Cl)s2)cc[n+]1[O-] [Example 83]
pH 2.3
  log p: 2.7^[a]

## CC(C)Cn1cc(-c2ccncc2)c(-c2ccc(C#N)s2)n1 [Example 404]
pH 2.7
  log p: 1.74^[b]

## CCCNc1cc(-c2c[nH]nc2-c2ccc(Cl)s2)cc[n+]1[O-] [Example 71]
pH 2.3
  log p: 1.9^[a]

## ClC(Cl)=CCn1cc(-c2ccncc2)c(-c2cc3ccsc3s2)n1 [Example 335]
pH 2.7
  log p: 1.67^[b]

## CC(C)n1ncc(-c2ccncn2)c1-c1ccc(Cl)s1 [Example 30]
pH 2.7
  log p: 2.94^[b]

## Cc1c(-c2ccncc2)c(-c2ccc(Cl)s2)nn1C [Example 147]
pH 2.7
  log p: 1.29^[b]
pH 7.8
  log p: 2.62^[c];

## Fc1ccccc1Cn1cc(-c2ccncc2)c(-c2sccc2Cl)n1 [Example 113]
pH 2.7
  log p: 1.74^[b]
  logP value of the minor isomer (in parenthesis in column Isomer ratio [d]): (1.76)

## CC(C)NC(=O)n1cc(-c2ccncc2)c(-c2ccc(Cl)s2)n1 [Example 89]
pH 2.7
  log p: 2.26^[b]

## FC=Cn1cc(-c2ccnc(N=C(c3ccccc3)c3ccccc3)c2)c(-c2ccc(Cl)s2)n1 [Example 302]
pH 2.7
  log p: 4.67^[b]

## Clc1ccc(-c2c(-c3ccncc3)cnn2C2CCCCC2)s1 [Example 12]
pH 2.7
  log p: 2.26^[b]

## CC(C)Cn1ncc(-c2ccnc(NCc3ccccc3)n2)c1-c1ccc(Cl)s1 [Example 96]
pH 2.3
  log p: 3.96^[a]

## CC#Cc1c(-c2ccncc2)c(-c2ccc(Cl)s2)nn1C(C)C [4-[(3/5)-(5-Chloro-2-thienyl)-1-isopropyl-5-(prop-1-yn-1-yl)-1H-pyrazol-4-yl]pyridine]
pH 2.7
  logP (pH2.7): 2.78
  logP (pH2.7), minor isomer: 2.21

## CC(C)n1cc(-c2ccnc(NCc3ccccc3)n2)c(-c2ccc(Cl)s2)n1 [Example 198]
pH 2.3
  log p: 3.81^[a]
